US20230086007A1, “USE OF DENATONIUM BENZOATE AS A SEED TREATMENT FOR CROPS AS BIRD AND/OR INSECT REPELLENT” (KWS SAAT SE & Co. KGaA, priority 2020, published 2023)
Entries after “also recorded” stand apart in the source; their conditions may differ.

System: corvid
Experiment: Additional bird repellent field trials at three locations in Germany, plant stand counts
Type: in vivo, Corvus
Conditions: corn seed, denatonium benzoate 1 g/50.000 seeds
Source text: The bird repellent effect of denatonium benzoate has further been evaluated in additional field trials at three different location in Germany. Denatonium benzoate alone (DNB) or denatonium benzoate in combination with a solution of micronutrients (DNB+HA450) mixed with a sticker have been applied to the seeds. Denatonium benzoate has been applied in a concentration of 1 g/50.000 seeds. Three chemical references have been included in the trials: Korit (active substance: Ziram), Curb Crop Garden Powder with Sphere's formulation (active substance: aluminium ammonium sulphate) and Schwefal (active substance: organic sulfur). As negative control untreated seed has been used.
Plant stand counts have been assessed and summarized. […] Results of earlier field trials have been confirmed.

SMILES: CC[N+](CC)(CC(=O)Nc1c(C)cccc1C)Cc1ccccc1.O=C([O-])c1ccccc1 [Bitrex, N-Benzyl-2-(2,6-dimethylanilino)-N, N-diethyl-2-oxoethan-1-aminium benzoate]
- efficiency as corvid repellent for corn: excellent effect; also recorded: comparable with the best bird repellents like Korit and Sphere
